Experiment [1] deals with TRKB. To be noted: read-out: Crizotinib IC50 Biochemical; ref Cui et al., 2011; cited from earlier work.
Experiment [2] has as its system LCK. To be noted: read-out: Crizotinib IC50 Biochemical; ref Cui et al., 2011; cited from earlier work.
The test system of another experiment is MET. As to conditions: read-out: Live Cell IC50 Phospho Elisa; ref Cui et al., 2011; cited from earlier work.
A further experiment deals with TIE2. To be noted: read-out: Crizotinib IC50 Biochemical; ref Cui et al., 2011; cited from earlier work.
For experiment [3], the system named is TRKB. To be noted: read-out: Live Cell IC50 Phospho Elisa; ref Cui et al., 2011; cited from earlier work.
Another experiment has as its system INSR. To be noted: read-out: Live Cell IC50 Phospho Elisa; ref Cui et al., 2011; cited from earlier work.
The subject of another experiment is AXL. As to conditions: read-out: Live Cell IC50 Phospho Elisa; ref Cui et al., 2011; cited from earlier work.
For another experiment, the target named is T1, EPHB6 (Homo sapiens, UniProt O15197).
T1 sequence (O15197 32-1021): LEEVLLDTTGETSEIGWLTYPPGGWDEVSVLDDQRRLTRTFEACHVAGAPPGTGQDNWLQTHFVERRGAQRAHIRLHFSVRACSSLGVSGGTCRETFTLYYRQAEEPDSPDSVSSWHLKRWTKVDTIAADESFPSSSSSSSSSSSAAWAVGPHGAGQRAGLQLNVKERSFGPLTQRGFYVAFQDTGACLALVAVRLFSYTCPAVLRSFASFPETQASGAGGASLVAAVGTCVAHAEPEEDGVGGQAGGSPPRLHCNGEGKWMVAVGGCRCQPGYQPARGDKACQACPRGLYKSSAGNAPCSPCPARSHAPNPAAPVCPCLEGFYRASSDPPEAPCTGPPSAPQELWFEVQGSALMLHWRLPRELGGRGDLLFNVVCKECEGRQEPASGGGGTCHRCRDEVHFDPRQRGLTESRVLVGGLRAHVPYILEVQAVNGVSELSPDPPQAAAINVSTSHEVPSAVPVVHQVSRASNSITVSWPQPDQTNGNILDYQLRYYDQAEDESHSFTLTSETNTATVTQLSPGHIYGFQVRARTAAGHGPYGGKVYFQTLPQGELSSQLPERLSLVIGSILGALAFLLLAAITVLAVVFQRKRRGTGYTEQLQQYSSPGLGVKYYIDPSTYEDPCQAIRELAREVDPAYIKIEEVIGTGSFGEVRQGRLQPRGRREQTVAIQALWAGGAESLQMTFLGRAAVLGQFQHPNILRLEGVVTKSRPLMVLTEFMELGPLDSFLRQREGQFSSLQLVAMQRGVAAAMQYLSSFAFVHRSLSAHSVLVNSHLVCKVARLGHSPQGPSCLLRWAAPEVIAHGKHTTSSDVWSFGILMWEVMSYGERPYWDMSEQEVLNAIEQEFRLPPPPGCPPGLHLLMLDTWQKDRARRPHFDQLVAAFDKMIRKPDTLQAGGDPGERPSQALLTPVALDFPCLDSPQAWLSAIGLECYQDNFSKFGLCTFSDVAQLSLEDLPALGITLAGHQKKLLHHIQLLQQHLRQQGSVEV
Put plainly: NanoBRET target engagement, EPHB6-NanoLuc, HEK293 cells (live, ATP depleted, permeabilized). As to conditions: for EC50: read-out: Tracer Affinity EC50, EPHB6-NanoLuc.

Experiment [4] has as its target LCK (Homo sapiens, UniProt P06239). Put plainly: NanoBRET target engagement, LCK-NanoLuc, HEK293 cells (live, ATP depleted, permeabilized). Type of experiment: binding. As to conditions: LCK-NanoLuc, read-out: Tracer Affinity EC50. In general terms: In BRET a luciferase serves as donor, and the signal depends on an acceptor being close.
For experiment [5], the target named is full-length kinase/Nluc fusion proteins (Homo sapiens, UniProt Q9H1R3). Put plainly: Apparent affinity (EC50) of energy transfer probes by titration onto live HEK293 cells expressing kinase/Nluc fusions (Table S1). Type of experiment: binding. As to conditions: MYLK2, Nluc C; read-out: Probe EC50.
Chain of full-length kinase/Nluc fusion proteins (Homo sapiens, UniProt Q9H1R3) (Q9H1R3 whole entry, the tested form may be a part): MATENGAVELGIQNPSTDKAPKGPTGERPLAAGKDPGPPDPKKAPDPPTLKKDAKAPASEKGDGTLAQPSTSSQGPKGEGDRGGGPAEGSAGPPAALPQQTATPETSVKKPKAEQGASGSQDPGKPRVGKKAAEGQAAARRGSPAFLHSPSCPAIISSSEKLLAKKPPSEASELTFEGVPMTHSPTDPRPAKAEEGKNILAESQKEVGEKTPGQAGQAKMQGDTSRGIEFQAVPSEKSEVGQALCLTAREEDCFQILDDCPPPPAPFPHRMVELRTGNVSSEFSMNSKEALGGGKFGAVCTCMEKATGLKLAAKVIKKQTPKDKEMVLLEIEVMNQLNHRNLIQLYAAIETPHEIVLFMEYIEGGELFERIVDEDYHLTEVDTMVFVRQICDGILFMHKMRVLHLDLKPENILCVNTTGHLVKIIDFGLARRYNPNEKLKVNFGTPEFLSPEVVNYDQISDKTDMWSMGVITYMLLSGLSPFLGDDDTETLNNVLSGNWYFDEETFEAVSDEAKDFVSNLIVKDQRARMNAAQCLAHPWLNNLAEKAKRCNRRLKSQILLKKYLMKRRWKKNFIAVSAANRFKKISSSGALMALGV
Experiment [6] addresses full-length kinase/Nluc fusion proteins (Homo sapiens, UniProt P11362). The experiment is described as above. Type of experiment: binding. As to conditions: FGFR1, Nluc C; read-out: Probe EC50.
The target of experiment [7] is full-length kinase/Nluc fusion proteins (Homo sapiens, UniProt Q7KZI7). The description is as above. Type of experiment: binding. To be noted: MARK2, Nluc N; read-out: Probe EC50.
Chain of full-length kinase/Nluc fusion proteins (Homo sapiens, UniProt Q7KZI7) (Q7KZI7 whole entry, the tested form may be a part): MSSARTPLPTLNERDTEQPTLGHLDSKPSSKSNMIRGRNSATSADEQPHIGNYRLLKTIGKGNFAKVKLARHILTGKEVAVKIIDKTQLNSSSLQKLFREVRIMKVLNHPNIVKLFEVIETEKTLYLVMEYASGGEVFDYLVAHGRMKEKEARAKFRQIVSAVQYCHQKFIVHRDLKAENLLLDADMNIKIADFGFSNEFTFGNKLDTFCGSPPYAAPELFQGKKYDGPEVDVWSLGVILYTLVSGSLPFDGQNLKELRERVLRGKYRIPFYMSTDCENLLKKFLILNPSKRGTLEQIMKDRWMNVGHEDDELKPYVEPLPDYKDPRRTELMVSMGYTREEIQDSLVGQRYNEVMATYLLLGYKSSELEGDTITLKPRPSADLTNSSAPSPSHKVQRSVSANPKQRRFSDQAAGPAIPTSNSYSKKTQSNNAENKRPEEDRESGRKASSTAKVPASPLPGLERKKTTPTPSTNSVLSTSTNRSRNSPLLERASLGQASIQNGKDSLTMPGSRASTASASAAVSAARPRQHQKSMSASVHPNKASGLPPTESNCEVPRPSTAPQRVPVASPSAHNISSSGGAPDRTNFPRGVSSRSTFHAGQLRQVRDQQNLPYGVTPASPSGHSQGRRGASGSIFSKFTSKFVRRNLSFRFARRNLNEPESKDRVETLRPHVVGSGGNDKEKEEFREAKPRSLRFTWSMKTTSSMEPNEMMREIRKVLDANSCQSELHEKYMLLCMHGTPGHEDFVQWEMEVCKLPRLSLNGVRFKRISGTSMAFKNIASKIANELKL
For experiment [8], the target named is full-length kinase/Nluc fusion proteins (Homo sapiens, UniProt P08069). Described as above. Type of experiment: binding. To be noted: IGF1R, Nluc C; read-out: Probe EC50.
Experiment [9] has as its target full-length kinase/Nluc fusion proteins (Homo sapiens, UniProt P45983). The experiment is described as above. Type of experiment: binding. As to conditions: read-out: Probe EC50.
In experiment [10] the target is full-length kinase/Nluc fusion proteins (Homo sapiens, UniProt Q13043). Described as above. Type of experiment: binding. To be noted: STK4 (NP_006273), Nluc orientation N; read-out: Probe EC50.
The target in experiment [11] is full-length kinase/Nluc fusion proteins (Homo sapiens, UniProt P06239). Described as above. Type of experiment: binding. As to conditions: LCK.
Chain of full-length kinase/Nluc fusion proteins (Homo sapiens, UniProt P06239) (P06239 whole entry, the tested form may be a part): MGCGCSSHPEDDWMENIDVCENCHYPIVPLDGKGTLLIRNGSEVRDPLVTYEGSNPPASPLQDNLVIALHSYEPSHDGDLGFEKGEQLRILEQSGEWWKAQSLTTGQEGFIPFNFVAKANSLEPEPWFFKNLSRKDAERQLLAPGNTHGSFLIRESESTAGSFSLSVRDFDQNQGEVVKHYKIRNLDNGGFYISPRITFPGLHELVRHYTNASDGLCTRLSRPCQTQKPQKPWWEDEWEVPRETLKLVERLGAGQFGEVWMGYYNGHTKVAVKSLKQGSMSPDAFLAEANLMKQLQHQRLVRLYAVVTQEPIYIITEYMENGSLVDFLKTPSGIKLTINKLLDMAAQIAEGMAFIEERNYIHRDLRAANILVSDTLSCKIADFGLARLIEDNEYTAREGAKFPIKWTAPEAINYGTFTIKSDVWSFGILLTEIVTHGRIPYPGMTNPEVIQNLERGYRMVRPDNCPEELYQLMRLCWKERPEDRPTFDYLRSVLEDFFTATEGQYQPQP
The target in experiment [12] is full-length kinase/Nluc fusion proteins (Homo sapiens, UniProt Q9NYY3). The description is as above. Type of experiment: binding. To be noted: PLK2, Nluc N; read-out: Probe EC50.
Chain of full-length kinase/Nluc fusion proteins (Homo sapiens, UniProt Q9NYY3) (Q9NYY3 whole entry, the tested form may be a part): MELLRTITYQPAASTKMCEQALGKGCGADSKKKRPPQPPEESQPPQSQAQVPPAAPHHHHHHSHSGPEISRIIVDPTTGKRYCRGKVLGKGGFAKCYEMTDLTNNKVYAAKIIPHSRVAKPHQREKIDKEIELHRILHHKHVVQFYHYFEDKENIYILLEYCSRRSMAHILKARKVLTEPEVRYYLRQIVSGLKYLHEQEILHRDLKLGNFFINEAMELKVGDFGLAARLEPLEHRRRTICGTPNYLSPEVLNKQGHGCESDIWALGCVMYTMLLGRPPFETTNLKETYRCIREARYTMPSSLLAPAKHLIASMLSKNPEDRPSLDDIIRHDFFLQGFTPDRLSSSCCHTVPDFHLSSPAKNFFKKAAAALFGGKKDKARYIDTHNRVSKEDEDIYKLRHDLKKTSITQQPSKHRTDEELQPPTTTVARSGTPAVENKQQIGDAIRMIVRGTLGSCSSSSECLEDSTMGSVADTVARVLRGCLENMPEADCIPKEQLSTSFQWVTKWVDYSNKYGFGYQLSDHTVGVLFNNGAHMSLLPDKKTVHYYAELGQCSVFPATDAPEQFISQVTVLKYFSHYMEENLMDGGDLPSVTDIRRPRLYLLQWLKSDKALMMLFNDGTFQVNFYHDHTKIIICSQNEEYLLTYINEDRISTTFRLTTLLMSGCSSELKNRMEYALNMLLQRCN
The target in experiment [13] is full-length kinase/Nluc fusion proteins (Homo sapiens, UniProt Q15831). The experiment is described as above. Type of experiment: binding. As to conditions: STK11 (NP_000446), Nluc orientation N; read-out: Probe EC50.
Chain of full-length kinase/Nluc fusion proteins (Homo sapiens, UniProt Q15831) (Q15831 whole entry, the tested form may be a part): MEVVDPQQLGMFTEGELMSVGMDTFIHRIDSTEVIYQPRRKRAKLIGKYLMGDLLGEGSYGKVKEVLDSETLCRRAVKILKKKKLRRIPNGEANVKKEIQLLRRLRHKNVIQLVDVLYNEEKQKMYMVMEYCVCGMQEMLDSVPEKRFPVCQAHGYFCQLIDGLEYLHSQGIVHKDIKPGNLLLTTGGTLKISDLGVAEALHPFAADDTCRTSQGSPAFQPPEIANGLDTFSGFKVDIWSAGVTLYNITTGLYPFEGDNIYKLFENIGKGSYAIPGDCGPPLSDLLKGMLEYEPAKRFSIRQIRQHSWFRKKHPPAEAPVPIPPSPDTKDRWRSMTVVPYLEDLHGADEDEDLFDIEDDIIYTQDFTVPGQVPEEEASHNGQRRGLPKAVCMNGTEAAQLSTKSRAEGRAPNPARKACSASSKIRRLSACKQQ
Experiment [14] deals with full-length kinase/Nluc fusion proteins (Homo sapiens, UniProt O76039). Described as above. Type of experiment: binding. To be noted: CDKL5, Nluc N; read-out: Probe EC50.
For experiment [15], the target named is full-length kinase/Nluc fusion proteins (Homo sapiens, UniProt Q9H0K1). Described as above. Type of experiment: binding. To be noted: SNF1LK2 (NP_056006), Nluc orientation N; read-out: Probe EC50.
The target of experiment [16] is full-length kinase/Nluc fusion proteins (Homo sapiens, UniProt P29322). The description is as above. Type of experiment: binding. As to conditions: EPHA8, Nluc C; read-out: Probe EC50.
For experiment [17], the target named is full-length kinase/Nluc fusion proteins (Homo sapiens, UniProt P51813). The description is as above. Type of experiment: binding. To be noted: BMX, Nluc C; read-out: Probe EC50.
The target of experiment [18] is full-length kinase/Nluc fusion proteins (Homo sapiens, UniProt P06241). The description is as above. To be noted: FYN, Nluc C; read-out: Probe EC50. Type of experiment: binding.
Chain of full-length kinase/Nluc fusion proteins (Homo sapiens, UniProt P06241) (P06241 whole entry, the tested form may be a part): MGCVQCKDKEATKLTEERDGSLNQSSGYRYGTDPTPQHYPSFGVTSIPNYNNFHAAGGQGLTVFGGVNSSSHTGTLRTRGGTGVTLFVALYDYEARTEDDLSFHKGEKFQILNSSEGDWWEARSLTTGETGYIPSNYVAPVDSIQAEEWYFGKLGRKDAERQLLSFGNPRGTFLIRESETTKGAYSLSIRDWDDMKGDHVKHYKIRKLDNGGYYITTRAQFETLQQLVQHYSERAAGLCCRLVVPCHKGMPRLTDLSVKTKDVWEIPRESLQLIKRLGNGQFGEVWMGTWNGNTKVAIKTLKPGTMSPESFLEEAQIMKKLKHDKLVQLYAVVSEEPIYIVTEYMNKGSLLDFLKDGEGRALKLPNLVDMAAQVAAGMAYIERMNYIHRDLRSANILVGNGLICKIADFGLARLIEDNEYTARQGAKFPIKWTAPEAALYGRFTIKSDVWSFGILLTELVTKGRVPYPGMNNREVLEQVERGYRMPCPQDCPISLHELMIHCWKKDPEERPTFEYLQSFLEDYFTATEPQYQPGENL
In experiment [19] the target is full-length kinase/Nluc fusion proteins (Homo sapiens, UniProt P09769). The description is as above. To be noted: FGR, Nluc N; read-out: Probe EC50. Type of experiment: binding.
Chain of full-length kinase/Nluc fusion proteins (Homo sapiens, UniProt P09769) (P09769 whole entry, the tested form may be a part): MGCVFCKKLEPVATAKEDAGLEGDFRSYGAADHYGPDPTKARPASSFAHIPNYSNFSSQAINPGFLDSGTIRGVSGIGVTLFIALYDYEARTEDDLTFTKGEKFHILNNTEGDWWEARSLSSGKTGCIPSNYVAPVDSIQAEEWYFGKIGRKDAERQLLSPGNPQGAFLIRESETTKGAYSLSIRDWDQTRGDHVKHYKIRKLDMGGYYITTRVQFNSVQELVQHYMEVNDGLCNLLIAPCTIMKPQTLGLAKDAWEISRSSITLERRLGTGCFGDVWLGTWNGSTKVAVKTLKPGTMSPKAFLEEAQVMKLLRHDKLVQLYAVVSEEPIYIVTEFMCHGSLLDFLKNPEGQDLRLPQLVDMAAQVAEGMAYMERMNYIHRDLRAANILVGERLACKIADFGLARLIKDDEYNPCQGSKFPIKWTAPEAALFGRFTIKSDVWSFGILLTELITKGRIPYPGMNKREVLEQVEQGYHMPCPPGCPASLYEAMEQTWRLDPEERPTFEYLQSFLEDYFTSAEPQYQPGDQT

Where two headings read alike, the source gives them in different places. Where only a bound is given, the exact number is not on record here.

The IC50 is the midpoint of a concentration-inhibition curve. What is called EC50 is the concentration that produces a half-maximal response.

Chain of LCK (P06239 whole entry, the tested form may be a part): as the sequence (P06239 whole entry, the tested form may be a part) above
Chain of full-length kinase/Nluc fusion proteins (Homo sapiens, UniProt P45983) (P45983 whole entry, the tested form may be a part): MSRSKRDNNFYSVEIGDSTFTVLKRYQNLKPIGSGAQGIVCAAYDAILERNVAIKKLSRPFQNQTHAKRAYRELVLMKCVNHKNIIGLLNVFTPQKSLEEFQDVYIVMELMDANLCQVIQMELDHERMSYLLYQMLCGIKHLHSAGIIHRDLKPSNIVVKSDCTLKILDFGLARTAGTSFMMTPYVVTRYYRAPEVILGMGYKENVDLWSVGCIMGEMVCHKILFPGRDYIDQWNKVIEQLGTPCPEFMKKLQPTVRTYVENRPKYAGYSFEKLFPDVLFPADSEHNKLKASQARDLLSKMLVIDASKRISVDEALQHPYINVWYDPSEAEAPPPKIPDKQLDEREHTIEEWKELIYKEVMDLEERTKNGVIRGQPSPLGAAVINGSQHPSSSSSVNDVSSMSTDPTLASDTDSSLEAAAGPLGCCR

On to `C[C@@H](Oc1cc(-c2cnn(C3CCNCC3)c2)cnc1N)c1c(Cl)ccc(F)c1Cl` [Crizotinib], for which the IC50 is […] in the experiment on TRKB [1]; […] with LCK [2]; […] with MET; […] in the experiment with TIE2; […] with TRKB [3]; […] in the experiment on INSR. For the same compound, in the experiment with AXL, the IC50 is […]. In addition, the receptor occupancy at 1 µM at EPHB6 (read-out: cellular occupancy) is below 10%.
For `CNC(=O)c1ccccc1Nc1nc(Nc2ccc(N3CCN(C(=O)CCOCCOCCOCCOCCNC(=O)CCc4ccc5n4[B-](F)(F)[N+]4=C(c6ccc[nH]6)C=CC4=C5)CC3)cc2)ncc1Cl` [Energy Transfer Probe 5, 2-((2-((4-(4-(1-amino-3,6,9,12-tetraoxapentadecan-15-oyl)piperazin-1-yl)phenyl)amino)-5-chloropyrimidin-4-yl)amino)-N-methylbenzamide-NanoBRET 590], the EC50 at LCK [4] (ATP Depleted) was 370 ± 70 nM; on LCK [4] (Live), above 1000 nM; on LCK [4] (Permeabilized), 52 ± 3 nM; in experiment [5] it was above 1000 nM; in experiment [6] it was 600 nM; in experiment [7], above 1000 nM. The EC50 was above 1000 nM in [8]; above 1000 nM in experiment [9] (JNK1, Nluc N); 300 nM in [9] (MAPK8, Nluc N); above 1000 nM in [10]; above 1000 nM in experiment [11] (Nluc C (probe 5)); above 1000 nM in experiment [12]. Besides, the EC50 in [13] and in experiment [14] was above 1000 nM in each case.
Take `Cc1nc(Nc2ncc(C(=O)Nc3c(C)cccc3Cl)s2)cc(N2CCN(CCOCCNC(=O)CCc3ccc4n3[B-](F)(F)[N+]3=C(c5ccc[nH]5)C=CC3=C4)CC2)n1` [Energy Transfer Probe 6, 2-((6-(4-(2-(2-aminoethoxy)ethyl)piperazin-1-yl)-2-methylpyrimidin-4-yl)amino)-N-(2-chloro-6-methylphenyl)thiazole-5-carboxamide-NanoBRET 590]: the concentration for a half-maximal effect (EC50) on EPHB6 (ATP Depleted) is above 1000 nM; on EPHB6 (Live), above 1000 nM; at EPHB6 (Permeabilized), 7 ± 3 nM; in experiment [15], 100 nM; in experiment [16], 10 nM; in experiment [17], 300 nM. In addition, the results for the concentration for a half-maximal effect (EC50) in experiment [11] (Nluc C (probe 6)), in experiment [18] and in [19] were above 1000 nM, 500 nM and 700 nM, respectively.
